Tests used:
[1] = test system: serum cholesterol; assay: Effect on serum cholesterol levels in rats, daily subcutaneous injection (Examples 41, 42); assay type: in vivo, rat (male, Sprague-Dawley); details: day 3
Procedure, shortened: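 Male Sprague-Dawley rats (110–190 g, chow-fed) received test sterols subcutaneously once daily, most at 5 mg in 0.25 ml triolein. 5α-Cholest-8(14)-en-3β-ol-15-one was given at 2 mg in 0.2 ml or 5 mg in 0.5 ml olive oil. Controls received vehicle; serum cholesterol was measured periodically, in duplicate.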

[2] = test system: sterol biosynthesis in primary cultures of mouse liver cells; assay: Inhibition of sterol synthesis from [1-14C]acetate in primary cultures of liver cells; assay type: cell-based; details: primary cultures of liver cells, read-out: Concentrations Required for 50% Inhibition of Sterol Synthesis
Description: The effect of various 15-oxygenated sterols on sterol biosynthesis in L cells and in primary cultures of mouse liver cells was tested essentially under conditions described in detail previously [A. A. Kandutsch and H. W. Chen, J. Biol. Chem., Vol. 248, pp. 8408-8417 (1973) and A. A. Kandutsch and H. W. Chen, J. Biol. Chem., Vol. 249, pp. 6057-6061 (1974`)].
(§1) The primary liver cell cultures were prepared from 16-day-old (C57BL/6J fetuses and grown in chemically defined medium (serum-free) as described in the above cited publications. The L cells, a subline of NCTC clone 929 mouse fibroblasts, were grown in chemically defined medium (serum-free) as described in the publications. These L cells are transformed fibroblasts which are regarded as malignant since they will grow as tumors if injected into the mouse strain from which they were initially obtained.
(§2) The preparation of steroid-containing media, procedures for assays of the conversion of [1-^14 C]acetate into digitonin-precipitable sterols, fatty acids, and CO2 and methods for the measurement of DNA, protein, and HMG-CoA reductase were as described in the published articles. L cell cultures were preincubated with the 15-oxygenated sterols and their derivatives for 4 hours, then [1-^14 C]acetate was added at a concentration of 4 μmoles per ml (4 μCi per ml); or the L cell cultures were incubated for 5 hours with the 15-oxygenated sterols before they were harvested for determination of microsomal HMG-CoA reductase activity.
(§3) Conditions for incubating the 15-oxygenated sterols or their derivatives with liver cell cultures were similar to those described for L cell cultures except that the cultures were incubated with the test compounds for 12 hours before labeled acetate was added or before they were harvested for enzyme assay.
The test compounds were tested over a range of at least 4 concentrations and the assay was repeated until the concentration of test compound required to produce 50% inhibition was located on the steeply declining portion of an activity vs. concentration plot. To diminish any possible effects of generalized differences in cellular metabolism, the rates of sterol synthesis from [1-^14 C]acetate were calculated as the ratio of [^14 C]sterols to [^14 C]fatty acids as described in the two cited articles by Kandutsch and Chen.

[3] = test system: sterol biosynthesis in L cells; assay: Inhibition of sterol synthesis from [1-14C]acetate in L cell cultures; assay type: cell-based; details: Mus musculus; L cell cultures; read-out: Concentrations Required for 50% Inhibition of Sterol Synthesis
Procedure, shortened: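 Mouse L cells (NCTC clone 929 subline) in serum-free defined medium, preincubated 4 h with 15-oxygenated sterols, then given [1-14C]acetate at 4 μmoles per ml (4 μCi per ml). Sterol synthesis expressed as [14C]sterols/[14C]fatty acids ratio; 50% inhibitory concentration located over at least 4 compound concentrations.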

[4] = test system: HMG-CoA reductase; assay: Reduction of the activity of HMG-CoA reductase in primary cultures of liver cells; assay type: cell-based, mouse; details: read-out: Concentrations Required for 50% Reduction of the Activity of HMG-CoA Reductase
Description: as §1, §2, §3
A number of the 15-oxygenated sterols have also been tested with respect to their effects on the activity and/or levels of the enzyme HMG-CoA reductase (3-hydroxy-3-methylglutaryl coenzyme A reductase) in the L cells and in the liver cells. As noted previously, this enzyme catalyzes the reduction of 3-hydroxy-3-methylglutaryl coenzyme A to yield mevalonic acid, an essential intermediate in the biosynthesis of sterols and of a number of other essential compounds in cells.
Using the technique described by Kandutsch and Chen in the article cited in the previous example, the concentrations of various 15-oxygenated sterols required to reduce the levels of activity of HMG-CoA reductase by 50% was determined in the cells of the L cells in culture and of the primary cultures of liver cells.

[5] = Body weight of mice, ketone in diet (Example 47); assay type: in vivo, mouse; details: 0.2% in diet; eight days; 7-week-old mice
Description: […] Five mice were fed the ketone at a level of 0.2% in a diet which was essentially free of animal sterols for eight days. Five control pair-fed mice were fed the same diet to which the ketone was not added. The mean plasma cholesterol concentration in the ketone group after the eight day experiment was 35.8(±3.6, standard error of mean) mg per 100 ml of plasma while the corresponding value for the pair-fed group was 114.4 (±3.4, standard error of mean). It should be noted that very closely matched pairfeeding is difficult to perform in mice of this age due to the small amounts of food which are consumed and which must be accurately determined in such experiments.

[6] = 2 mg s.c. once a day in 0.2 ml olive oil
[7] = 5 mg s.c. once a day in 0.5 ml olive oil

CC(C)CCC[C@@H](C)[C@H]1CC(=O)C2=C3CC[C@H]4C[C@@H](O)CC[C@]4(C)[C@H]3CC[C@@]21C [5α-Cholest-8(14)-en-3β-ol-15-one, 5α-cholest-8(14)-en-3β-ol-15-one]
% Reduction (relative to olive oil-treated rats) [1, 6]: 12%
Serum Cholesterol (Mean ± S.E.M.) [1, 6]: 64.5 ± 2.5 mg per 100 ml
% Reduction (relative to olive oil-treated rats) [1, 7]: 22%
Serum Cholesterol (Mean ± S.E.M.) [1, 7]: 59.6 ± 2.2 mg per 100 ml
IC50 [2]: 4 µM
IC50 [3]: 0.1 µM
IC50 [4]: 4 µM
average decrease in body weight (standard error of mean) [5]: 5.9 g

Reference: US4202891A, “15-Oxygenated sterol compounds and the use of such compounds to inhibit the biosynthesis of sterols” (priority 1977, dated 1980)
